Literature values as cited in patent US11179330B2, “Doxepin oral transmucosal film” (Xiamen LP Pharmaceutical Co., Ltd., priority 2019, dated 2021).
Where a name gives a salt, the structure may show the parent alone.

Key:
[1] = patients

| SMILES | sleep maintained [1] [h] | mean oral bioavailability |
| --- | --- | --- |
| CN(C)CCC=C1c2ccccc2COc2ccccc21 [Doxepin hydrochloride] | 7 to 8 |  |
| CN(C)CCC=C1c2ccccc2COc2ccccc21 [Doxepin] |  | 13-45% |
